According to PubChem BioAssay (NCI):
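All cell lines were grown in 96-well plates and treated with compound for 48 hours. Here, GI50 denotes the concentration required for 50% inhibition of growth. TGI is the concentration that stops growth completely.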

Key:
Test in all cases: growth of human tumour cells (NCI), 48 h
MCF7 breast = system: MCF7 breast
MDA-MB-231 breast = system: MDA-MB-231 breast
U251 CNS = system: U251 CNS
SK-MEL-2 melanoma = system: SK-MEL-2 melanoma
HT29 colon = system: HT29 colon
NCI-H226 lung = system: NCI-H226 lung
SK-MEL-5 melanoma = system: SK-MEL-5 melanoma
HOP-62 NSCLC = system: HOP-62 NSCLC
OVCAR-8 ovarian = system: OVCAR-8 ovarian
SN12C renal = system: SN12C renal
SR leukemia = system: SR leukemia
SK-MEL-28 melanoma = system: SK-MEL-28 melanoma
OVCAR-3 ovarian = system: OVCAR-3 ovarian
HCC-2998 colon = system: HCC-2998 colon
NCI-H23 lung = system: NCI-H23 lung
CCRF-CEM leukemia = system: CCRF-CEM leukemia
SNB-75 CNS = system: SNB-75 CNS
SF-268 CNS = system: SF-268 CNS
UACC-257 melanoma = system: UACC-257 melanoma
PC-3 prostate = system: PC-3 prostate
UO-31 renal = system: UO-31 renal
TK-10 renal = system: TK-10 renal
HS 578T breast = system: HS 578T breast
SNB-19 CNS = system: SNB-19 CNS
COLO 205 colon = system: COLO 205 colon
ACHN renal = system: ACHN renal
HL-60(TB) leukemia = system: HL-60(TB) leukemia
HCT-116 colon = system: HCT-116 colon
A549 NSCLC = system: A549 NSCLC
MALME-3M melanoma = system: MALME-3M melanoma
SW-620 colon = system: SW-620 colon
UACC-62 melanoma = system: UACC-62 melanoma
M14 melanoma = system: M14 melanoma
DU-145 prostate = system: DU-145 prostate
SK-OV-3 ovarian = system: SK-OV-3 ovarian
MDA-MB-435 = system: MDA-MB-435
NCI-H522 lung = system: NCI-H522 lung
KM12 colon = system: KM12 colon
NCI/ADR-RES ovarian = system: NCI/ADR-RES ovarian
SF-295 CNS = system: SF-295 CNS
OVCAR-5 ovarian = system: OVCAR-5 ovarian
BT-549 breast = system: BT-549 breast
IGROV1 ovarian = system: IGROV1 ovarian
SF-539 CNS = system: SF-539 CNS
K-562 leukemia = system: K-562 leukemia
HCT-15 colon = system: HCT-15 colon
MOLT-4 leukemia = system: MOLT-4 leukemia
A498 renal = system: A498 renal
786-0 renal = system: 786-0 renal
T-47D breast = system: T-47D breast
CAKI-1 renal = system: CAKI-1 renal
NCI-H460 lung = system: NCI-H460 lung
HOP-92 NSCLC = system: HOP-92 NSCLC
LOX IMVI melanoma = system: LOX IMVI melanoma
OVCAR-4 ovarian = system: OVCAR-4 ovarian
RXF 393 renal = system: RXF 393 renal
RPMI-8226 leukemia = system: RPMI-8226 leukemia
EKVX NSCLC = system: EKVX NSCLC

O=C(CCCn1ccnc1[N+](=O)[O-])NCCn1ccnc1
TGI (MCF7 breast): > 100 µM | TGI (MDA-MB-231 breast): > 100 µM | TGI (U251 CNS): > 100 µM | TGI (SK-MEL-2 melanoma): > 100 µM | TGI (HT29 colon): > 100 µM | TGI (NCI-H226 lung): > 100 µM | TGI (SK-MEL-5 melanoma): > 100 µM | TGI (HOP-62 NSCLC): > 100 µM | TGI (OVCAR-8 ovarian): > 100 µM | TGI (SN12C renal): > 100 µM | TGI (SR leukemia): > 100 µM | TGI (SK-MEL-28 melanoma): > 100 µM | TGI (OVCAR-3 ovarian): > 100 µM | TGI (HCC-2998 colon): > 100 µM | TGI (NCI-H23 lung): > 100 µM | TGI (CCRF-CEM leukemia): > 100 µM | TGI (SNB-75 CNS): > 100 µM | TGI (SF-268 CNS): > 100 µM | TGI (UACC-257 melanoma): > 100 µM | TGI (PC-3 prostate): > 100 µM | TGI (UO-31 renal): > 100 µM | TGI (TK-10 renal): > 100 µM | TGI (HS 578T breast): > 100 µM | TGI (SNB-19 CNS): > 100 µM | TGI (COLO 205 colon): > 100 µM | TGI (ACHN renal): > 100 µM | TGI (HL-60(TB) leukemia): > 100 µM | TGI (HCT-116 colon): > 100 µM | TGI (A549 NSCLC): > 100 µM | TGI (MALME-3M melanoma): > 100 µM | TGI (SW-620 colon): > 100 µM | TGI (UACC-62 melanoma): > 100 µM | TGI (M14 melanoma): > 100 µM | TGI (DU-145 prostate): > 100 µM | TGI (SK-OV-3 ovarian): > 100 µM | TGI (MDA-MB-435): > 100 µM | TGI (NCI-H522 lung): > 100 µM | TGI (KM12 colon): > 100 µM | TGI (NCI/ADR-RES ovarian): > 100 µM | TGI (SF-295 CNS): > 100 µM | TGI (OVCAR-5 ovarian): > 100 µM | TGI (BT-549 breast): > 100 µM | TGI (IGROV1 ovarian): > 100 µM | TGI (SF-539 CNS): > 100 µM | TGI (K-562 leukemia): > 100 µM | TGI (HCT-15 colon): > 100 µM | TGI (MOLT-4 leukemia): > 100 µM | TGI (A498 renal): > 100 µM | TGI (786-0 renal): > 100 µM | TGI (T-47D breast): > 100 µM | TGI (CAKI-1 renal): > 100 µM | TGI (NCI-H460 lung): > 100 µM

CCOC(=O)Oc1c(OC)cc(C(=O)O[C@@H]2C[C@@H]3CN4CCc5c([nH]c6cc(OC)ccc56)[C@H]4C[C@@H]3[C@H](C(=O)OC)[C@H]2OC)cc1OC
GI50 (MCF7 breast): 4.13 µM | TGI (MCF7 breast): 17.3 µM | GI50 (MDA-MB-231 breast): 2.56 µM | TGI (MDA-MB-231 breast): 19.6 µM | GI50 (U251 CNS): 4.24 µM | TGI (U251 CNS): 15.1 µM | GI50 (SK-MEL-2 melanoma): 12.1 µM | TGI (SK-MEL-2 melanoma): 28.3 µM | GI50 (HT29 colon): 2.32 µM | TGI (HT29 colon): 5.92 µM | GI50 (NCI-H226 lung): 15.1 µM | TGI (NCI-H226 lung): 58.1 µM | GI50 (SK-MEL-5 melanoma): 7.86 µM | TGI (SK-MEL-5 melanoma): 20.7 µM | GI50 (HOP-62 NSCLC): 11.7 µM | TGI (HOP-62 NSCLC): 25.2 µM | GI50 (HOP-92 NSCLC): 3.64 µM | TGI (HOP-92 NSCLC): 18.9 µM | GI50 (OVCAR-8 ovarian): 4.94 µM | TGI (OVCAR-8 ovarian): 21.1 µM | GI50 (SN12C renal): 4.34 µM | TGI (SN12C renal): 17.7 µM | GI50 (SR leukemia): 3.61 µM | TGI (SR leukemia): > 100 µM | GI50 (SK-MEL-28 melanoma): 6.32 µM | TGI (SK-MEL-28 melanoma): 18.8 µM | GI50 (LOX IMVI melanoma): 2.91 µM | TGI (LOX IMVI melanoma): 14.7 µM | GI50 (OVCAR-3 ovarian): 4.62 µM | TGI (OVCAR-3 ovarian): 16.1 µM | GI50 (HCC-2998 colon): 5.06 µM | TGI (HCC-2998 colon): 20 µM | GI50 (OVCAR-4 ovarian): 4.72 µM | TGI (OVCAR-4 ovarian): 19.8 µM | GI50 (NCI-H23 lung): 5.24 µM | TGI (NCI-H23 lung): 21.8 µM | GI50 (SNB-75 CNS): 6.64 µM | TGI (SNB-75 CNS): 24.5 µM | GI50 (SF-268 CNS): 8.07 µM | TGI (SF-268 CNS): 27.5 µM | GI50 (RXF 393 renal): 5.03 µM | TGI (RXF 393 renal): 19.1 µM | GI50 (UACC-257 melanoma): 12.4 µM | TGI (UACC-257 melanoma): 30.4 µM | GI50 (PC-3 prostate): 4.92 µM | TGI (PC-3 prostate): 33.8 µM | GI50 (UO-31 renal): 5.18 µM | TGI (UO-31 renal): > 100 µM | GI50 (RPMI-8226 leukemia): 2.23 µM | TGI (RPMI-8226 leukemia): 10.8 µM | GI50 (TK-10 renal): 14.7 µM | TGI (TK-10 renal): 42.5 µM | GI50 (HS 578T breast): 7.09 µM | TGI (HS 578T breast): 55.9 µM | GI50 (SNB-19 CNS): 5.04 µM | TGI (SNB-19 CNS): 20.9 µM | GI50 (COLO 205 colon): 10.3 µM | TGI (COLO 205 colon): 24.1 µM | GI50 (ACHN renal): 4.16 µM | TGI (ACHN renal): 21.7 µM | GI50 (HL-60(TB) leukemia): 3.64 µM | TGI (HL-60(TB) leukemia): 15.1 µM | GI50 (HCT-116 colon): 1.73 µM | TGI (HCT-116 colon): 3.58 µM | GI50 (A549 NSCLC): 3.41 µM | TGI (A549 NSCLC): 14.2 µM | GI50 (MALME-3M melanoma): 6.74 µM | TGI (MALME-3M melanoma): 27.1 µM | GI50 (SW-620 colon): 3.67 µM | TGI (SW-620 colon): 19.4 µM | GI50 (UACC-62 melanoma): 6.89 µM | TGI (UACC-62 melanoma): 20.3 µM | GI50 (M14 melanoma): 4.44 µM | TGI (M14 melanoma): 18.9 µM | GI50 (DU-145 prostate): 13.5 µM | TGI (DU-145 prostate): 95.8 µM | GI50 (EKVX NSCLC): 5.78 µM | TGI (EKVX NSCLC): 35.9 µM | GI50 (SK-OV-3 ovarian): 14.3 µM | TGI (SK-OV-3 ovarian): 27.4 µM | GI50 (MDA-MB-435): 8.33 µM | TGI (MDA-MB-435): 23.9 µM | GI50 (NCI-H522 lung): 5.18 µM | TGI (NCI-H522 lung): 18.7 µM | GI50 (KM12 colon): 4.7 µM | TGI (KM12 colon): 17.7 µM | GI50 (NCI/ADR-RES ovarian): 4.37 µM | TGI (NCI/ADR-RES ovarian): 23.3 µM | GI50 (SF-295 CNS): 10.2 µM | TGI (SF-295 CNS): 31.4 µM | GI50 (OVCAR-5 ovarian): 18 µM | TGI (OVCAR-5 ovarian): 48.1 µM | GI50 (BT-549 breast): 9.08 µM | TGI (BT-549 breast): 24.1 µM | GI50 (IGROV1 ovarian): 9.58 µM | TGI (IGROV1 ovarian): 39.2 µM | GI50 (SF-539 CNS): 4.18 µM | TGI (SF-539 CNS): 14.8 µM | GI50 (K-562 leukemia): 3.5 µM | TGI (K-562 leukemia): 35.7 µM | GI50 (HCT-15 colon): 2.86 µM | TGI (HCT-15 colon): 13.2 µM | GI50 (MOLT-4 leukemia): 4.04 µM | TGI (MOLT-4 leukemia): 23.3 µM | GI50 (A498 renal): 7.38 µM | TGI (A498 renal): > 100 µM | GI50 (786-0 renal): 9.62 µM | TGI (786-0 renal): 25.3 µM | GI50 (T-47D breast): 2.97 µM | TGI (T-47D breast): 20.1 µM | GI50 (CAKI-1 renal): 13.9 µM | TGI (CAKI-1 renal): 48.1 µM | GI50 (NCI-H460 lung): 3.8 µM | TGI (NCI-H460 lung): 16.6 µM
